Measurements published in patent US8623110B2, “Protein and isolated or purified amino acid product containing compositions and uses thereof” (Archer Daniels Midland Company, priority 2007, dated 2014).

What was measured:
Type in all cases: in vivo
[1] = system: 'Floratam' St. Augustinegrass; assay: Fertilizer efficacy on St. Augustinegrass (quality, color, clipping weight); conditions: St. Augustinegrass sites 1 and 2; LSG at high rate (Tables 4-7)
Experimental: (§1) In another embodiment, the fertilizers of the various embodiments described herein were compared to industry standards for efficacy and phytotoxicity on St. Augustinegrass and bermudagrass. In another embodiment the experimental fertilizers were evaluated for their efficacy as a pre-emergent herbicide compared to an industry standard.
Efficacy of the fertilizers on the St. Augustinegrass Site was evaluated by applying treatments 1-8 to 4 replications of ‘Floratam’ St. Augustinegrass. Plot size was 1 m×2 m set up as a randomized complete block. Initially Nature Safe was applied as a granular, while ammonium sulfate and remaining products were applied as split liquid treatments sprayed out using a CO2 boom sprayer set to deliver a volume of 1 gallon/1000 ft^2. After six weeks all 10 treatments were applied to the 4 replications of ‘Floratam’. Products 3-10 were again applied as split liquid treatments using a CO2 boom sprayer. Split treatments were re-applied approximately 2 weeks later. Plots were mowed at 3.0 inches before fertilizer application. Irrigation (0.15 inch) was applied following each application. Clipping samples were taken approximately monthly for dry weight (grams) determination. […] All data was subject to statistical analysis and significant means were determined.

bermudagrass = assay: Fertilizer efficacy on bermudagrass (quality, color, clipping weight); conditions: LSG at high rate (Tables 8 and 9)
Experimental: as §1
Efficacy of the fertilizers on the Bermudagrass Site was evaluated by applying, treatments 1-8 to 4 replications of 1 m×2 m bermudagrass plots set up as a randomized complete block. Nature Safe was applied as a granular, while ammonium sulfate and remaining products were applied as split liquid treatments sprayed out using a CO2 boom sprayer set to deliver a volume of 1 gallon/1000 ft^2. Turfgrass ratings were taken to ensure turf quality/color uniformity.
After 6 weeks all 10 treatments were applied to 4 replications of bermudagrass plots. Products 3-10 were again applied as split liquid treatments sprayed out using a CO2 boom sprayer. Split treatments were re-applied approximately 2 weeks later. Plots were mowed at 0.5 inches before fertilizer application. Irrigation (0.15 inch) was applied following application. Clipping samples were taken approximately monthly for dry weight (grams) determination. […] All data was subject to statistical analysis and significant means were determined.

weeds = assay: Pre-emergent herbicide efficacy, percent weed cover on bare soil; conditions: compared to the untreated control (Table 13)
Experimental: Herbicide efficacy of the fertilizers was evaluated with Granular Lysine (LSG), Liquid Lysine (LSL), and Ronstar G by applying them to 3 replications of 1 m×1 m plots which also included an untreated control. Plots were located in an area of known weed infestation problems. Plots were prepared prior to treatment application by rototilling and applying 3 glyphosate applications to clear up pre-existing weeds and the test was initiated with 0 percent weed in all plots. On approximately monthly intervals percent weed cover ratings were taken. All data was subject to statistical analysis and significant means were determined.

SMILES: Cl.NCCCC[C@H](N)C(=O)O [LSG, L-lysine monohydrochloride]
- turfgrass quality and color (scale of 1-10) [1]: highest numerical average on many rating dates
- turfgrass quality and color (scale of 1-10) (bermudagrass): best numerical turfgrass scores on most dates
- weed ratings (percent weed cover) (weeds): not significantly different
